Laboratory results published in PMC6710349, “Action of Dicumarol on Glucosamine-1-Phosphate Acetyltransferase of GlmU and Mycobacterium tuberculosis” (Frontiers in Microbiology, 2019).

Target: GlmU (glucosamine-1-phosphate acetyltransferase / N-acetylglucosamine-1-phosphate uridyltransferase) (Mycobacterium tuberculosis, UniProt P9WMN3)
Test: DTNB colorimetric acetyltransferase assay, with Lineweaver-Burk kinetics
Assay type: biochemical

GlmU (glucosamine-1-phosphate acetyltransferase / N-acetylglucosamine-1-phosphate uridyltransferase), sequence (P9WMN3 2-495 limits assumed): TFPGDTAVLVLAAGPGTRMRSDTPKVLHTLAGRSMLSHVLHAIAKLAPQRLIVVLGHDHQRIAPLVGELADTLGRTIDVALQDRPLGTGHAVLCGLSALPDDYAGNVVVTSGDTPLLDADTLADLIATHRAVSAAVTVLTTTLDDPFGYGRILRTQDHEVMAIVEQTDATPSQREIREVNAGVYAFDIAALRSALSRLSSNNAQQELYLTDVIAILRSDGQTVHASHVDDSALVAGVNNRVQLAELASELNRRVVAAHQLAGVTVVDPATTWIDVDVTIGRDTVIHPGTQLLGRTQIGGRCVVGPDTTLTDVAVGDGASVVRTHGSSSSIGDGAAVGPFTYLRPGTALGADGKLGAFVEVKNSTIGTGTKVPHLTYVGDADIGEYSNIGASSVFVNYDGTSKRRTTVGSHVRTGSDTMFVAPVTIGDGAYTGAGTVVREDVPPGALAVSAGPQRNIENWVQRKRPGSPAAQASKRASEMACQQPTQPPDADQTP

O=c1oc2ccccc2c(O)c1Cc1c(O)c2ccccc2oc1=O [compound 22, 3,3′-methylene-bis-4-hydroxycoumarin]
IC50: 13.7 µM
